Legend:
Experiment in all cases: Kinase profiling in a biochemical assay panel (mobility shift assays and ELISA), %-inhibition at 1 μM; selectivity entropy
[1] = biological target: panel of more than 300 wild-type and mutant kinases (313 kinase panel) (Homo sapiens, UniProt Q9H0K1)
[2] = biological target: T1, panel of more than 300 wild-type and mutant kinases (313 kinase panel) (Homo sapiens, UniProt Q9UQB9)
T1 sequence (Q9UQB9 1-309): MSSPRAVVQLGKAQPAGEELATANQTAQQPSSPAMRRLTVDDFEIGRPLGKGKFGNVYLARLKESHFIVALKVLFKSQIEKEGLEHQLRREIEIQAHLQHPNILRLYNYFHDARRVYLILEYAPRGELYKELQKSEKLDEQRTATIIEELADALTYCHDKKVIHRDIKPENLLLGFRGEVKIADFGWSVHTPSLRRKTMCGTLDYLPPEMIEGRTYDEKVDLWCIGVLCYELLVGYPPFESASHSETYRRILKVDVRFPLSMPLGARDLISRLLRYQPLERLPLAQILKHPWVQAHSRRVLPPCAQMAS

[3] = biological target: panel of more than 300 wild-type and mutant kinases (313 kinase panel) (Homo sapiens, UniProt P07333)
[4] = biological target: T2, panel of more than 300 wild-type and mutant kinases (313 kinase panel) (Homo sapiens, UniProt Q8TDC3)
T2 sequence (Q8TDC3 1-778): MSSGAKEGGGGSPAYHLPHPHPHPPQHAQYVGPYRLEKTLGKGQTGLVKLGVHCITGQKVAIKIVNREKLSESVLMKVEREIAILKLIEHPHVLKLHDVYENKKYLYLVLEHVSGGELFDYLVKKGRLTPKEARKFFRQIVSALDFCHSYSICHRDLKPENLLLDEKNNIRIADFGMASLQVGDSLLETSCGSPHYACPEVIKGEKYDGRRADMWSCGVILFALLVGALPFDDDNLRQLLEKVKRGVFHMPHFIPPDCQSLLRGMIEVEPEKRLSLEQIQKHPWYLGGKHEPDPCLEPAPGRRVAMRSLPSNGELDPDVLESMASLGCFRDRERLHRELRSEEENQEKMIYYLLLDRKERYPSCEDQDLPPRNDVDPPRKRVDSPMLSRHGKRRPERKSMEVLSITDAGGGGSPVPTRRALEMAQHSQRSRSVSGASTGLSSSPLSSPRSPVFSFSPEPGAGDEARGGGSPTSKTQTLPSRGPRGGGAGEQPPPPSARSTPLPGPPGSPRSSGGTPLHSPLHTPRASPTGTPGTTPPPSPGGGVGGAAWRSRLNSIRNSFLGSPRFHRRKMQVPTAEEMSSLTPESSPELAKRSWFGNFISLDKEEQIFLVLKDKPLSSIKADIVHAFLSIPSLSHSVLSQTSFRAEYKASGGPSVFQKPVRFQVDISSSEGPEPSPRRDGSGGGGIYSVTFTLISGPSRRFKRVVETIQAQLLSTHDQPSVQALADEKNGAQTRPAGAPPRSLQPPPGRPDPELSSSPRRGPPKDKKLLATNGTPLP

[5] = biological target: T3, panel of more than 300 wild-type and mutant kinases (313 kinase panel) (Homo sapiens, UniProt O14733)
T3 sequence (O14733 1-419): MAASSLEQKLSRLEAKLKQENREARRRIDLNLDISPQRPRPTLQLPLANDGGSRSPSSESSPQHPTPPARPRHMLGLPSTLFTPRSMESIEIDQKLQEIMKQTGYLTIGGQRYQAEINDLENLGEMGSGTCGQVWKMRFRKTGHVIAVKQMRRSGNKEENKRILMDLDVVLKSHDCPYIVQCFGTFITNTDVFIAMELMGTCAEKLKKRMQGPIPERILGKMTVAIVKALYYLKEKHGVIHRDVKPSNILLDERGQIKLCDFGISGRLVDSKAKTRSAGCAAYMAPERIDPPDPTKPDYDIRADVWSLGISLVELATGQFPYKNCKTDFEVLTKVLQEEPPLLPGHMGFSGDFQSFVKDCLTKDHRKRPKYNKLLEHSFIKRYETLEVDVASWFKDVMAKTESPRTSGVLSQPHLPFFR

[6] = biological target: panel of more than 300 wild-type and mutant kinases (313 kinase panel) (Homo sapiens, UniProt P09769)
[7] = biological target: T4, panel of more than 300 wild-type and mutant kinases (313 kinase panel) (Homo sapiens, UniProt P42681)
T4 sequence (P42681 1-527): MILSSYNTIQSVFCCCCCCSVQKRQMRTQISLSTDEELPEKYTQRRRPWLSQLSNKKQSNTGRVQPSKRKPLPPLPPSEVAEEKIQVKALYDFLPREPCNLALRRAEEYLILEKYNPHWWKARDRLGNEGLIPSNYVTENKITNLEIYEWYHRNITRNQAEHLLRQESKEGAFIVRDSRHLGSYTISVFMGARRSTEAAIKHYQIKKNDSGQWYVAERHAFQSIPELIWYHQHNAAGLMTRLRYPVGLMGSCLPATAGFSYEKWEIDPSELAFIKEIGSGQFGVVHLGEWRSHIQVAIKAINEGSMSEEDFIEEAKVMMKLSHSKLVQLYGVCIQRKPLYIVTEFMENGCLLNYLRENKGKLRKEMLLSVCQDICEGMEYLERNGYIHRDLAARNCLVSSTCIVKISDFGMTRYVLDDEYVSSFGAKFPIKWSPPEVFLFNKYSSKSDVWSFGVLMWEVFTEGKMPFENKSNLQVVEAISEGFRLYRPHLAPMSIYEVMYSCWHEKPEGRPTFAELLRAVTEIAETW

[8] = kinase MAP2K7, compound at 1 μM

Chain of panel of more than 300 wild-type and mutant kinases (313 kinase panel) (Homo sapiens, UniProt Q9H0K1) (Q9H0K1 whole entry, change not shown): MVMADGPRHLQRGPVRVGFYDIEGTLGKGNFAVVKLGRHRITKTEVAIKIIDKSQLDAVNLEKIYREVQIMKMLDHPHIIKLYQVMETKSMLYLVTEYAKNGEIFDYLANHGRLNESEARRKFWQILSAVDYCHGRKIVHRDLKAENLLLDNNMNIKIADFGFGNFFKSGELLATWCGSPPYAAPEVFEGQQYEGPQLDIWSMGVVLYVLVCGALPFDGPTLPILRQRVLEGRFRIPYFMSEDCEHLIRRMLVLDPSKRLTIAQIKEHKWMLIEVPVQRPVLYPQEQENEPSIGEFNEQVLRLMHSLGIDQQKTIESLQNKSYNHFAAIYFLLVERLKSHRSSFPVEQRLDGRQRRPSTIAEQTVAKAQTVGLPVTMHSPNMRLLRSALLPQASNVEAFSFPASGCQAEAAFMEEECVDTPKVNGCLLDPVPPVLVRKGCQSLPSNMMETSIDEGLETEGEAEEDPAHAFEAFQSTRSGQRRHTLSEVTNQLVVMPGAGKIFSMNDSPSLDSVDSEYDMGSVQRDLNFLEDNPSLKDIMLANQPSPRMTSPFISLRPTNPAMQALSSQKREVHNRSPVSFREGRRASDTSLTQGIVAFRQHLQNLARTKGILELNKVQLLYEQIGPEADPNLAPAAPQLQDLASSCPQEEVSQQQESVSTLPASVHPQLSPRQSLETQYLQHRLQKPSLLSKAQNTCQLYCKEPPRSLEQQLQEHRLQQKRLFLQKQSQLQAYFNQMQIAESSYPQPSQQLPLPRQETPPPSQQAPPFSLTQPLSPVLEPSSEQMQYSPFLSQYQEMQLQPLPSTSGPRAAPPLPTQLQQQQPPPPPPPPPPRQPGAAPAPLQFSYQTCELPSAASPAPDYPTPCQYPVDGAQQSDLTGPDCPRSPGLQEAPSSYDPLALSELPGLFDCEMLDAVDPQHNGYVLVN

Structure (SMILES) | %-inhibition of QIK ([1]; kinase QIK, 1 μM) [%] | %-inhibition, AurC ([2]; kinase AurC, 1 μM compound) [%] | %-inhibition of FMS ([3]; kinase FMS, compound at 1 μM) [%] | %-inhibition, BRSK1 ([4]; kinase BRSK1, 1 μM compound) [%] | %-inhibition of MAP2K7 [5, 8] [%] | %-inhibition of FGR ([6]; kinase FGR, compound at 1 μM) [%] | %-inhibition of TXK ([7]; kinase TXK, compound at 1 μM) [%] | %-inhibition of QIK ([1]; 1 µM) [%] | %-inhibition, AurC ([2]; 1 µM) [%] | %-inhibition, BRSK1 ([4]; 1 µM) [%] | %-inhibition of MAP2K7 ([5]; 1 µM) [%] | %-inhibition of FGR ([6]; 1 µM) [%] | %-inhibition of FMS ([3]; 1 µM) [%] | %-inhibition of TXK ([7]; 1 µM) [%]
C[C@@H](Oc1cc(-c2cnn(C3CCNCC3)c2)cnc1N)c1c(Cl)ccc(F)c1Cl [crizotinib] | 38 | 87 | 92 | 12 | 4.36 | 70 | 39 |  |  |  |  |  |  | 
CC(C)(C)c1nc(-c2cccc(NS(=O)(=O)c3c(F)cccc3F)c2F)c(-c2ccnc(N)n2)s1 [dabrafenib] | 80 | 23 | 15 | 37 | -4.55 | 82 | 18 |  |  |  |  |  |  | 
COc1cc2c(Nc3ccc(Br)cc3F)ncnc2cc1OCC1CCN(C)CC1 [vandetanib] | 95 |  |  | -9 | 5.36 | 86 | 60 |  |  |  |  |  |  | 
O=S(=O)(c1cccc2cnccc12)N1CCCNCC1 [fasudil] | 3.26 | -0.164 | -3 | -0.211 | -3.26 | -4.71 | 1 |  |  |  |  |  |  | 
C#Cc1cccc(Nc2ncnc3cc(OCCOC)c(OCCOC)cc23)c1 [erlotinib] |  |  |  |  |  |  |  | 18 | 24 | 5.68 | -5 | 29 |  | 
COc1cc2nccc(Oc3ccc(NC(=O)C4(C(=O)Nc5ccc(F)cc5)CC4)cc3)c2cc1OC [cabozantinib] | 0.408 | 86 | 54 | 3.24 | 10 | 94 | 18 |  |  |  |  |  |  | 
Cc1ccc(C(=O)Nc2ccc(CN3CCN(C)CC3)c(C(F)(F)F)c2)cc1C#Cc1cnc2cccnn12 [ponatinib] | 51 | 19 | 101 | -8 |  | 101 | 98 |  |  |  |  |  |  | 
CCCS(=O)(=O)Nc1ccc(F)c(C(=O)c2c[nH]c3ncc(-c4ccc(Cl)cc4)cc23)c1F [vemurafenib] | 6 | 13 | 6 | -8 | 1.65 | 93 | 5 |  |  |  |  |  |  | 
CCN(CC)CCNC(=O)c1c(C)[nH]c(/C=C2\C(=O)Nc3ccc(F)cc32)c1C [sunitinib] |  | 82 |  |  |  |  |  |  |  |  |  |  |  | 
Cc1cn(-c2cc(NC(=O)c3ccc(C)c(Nc4nccc(-c5cccnc5)n4)c3)cc(C(F)(F)F)c2)cn1 [nilotinib] | -36 | 5 |  | 0.801 | -24 | 55 | 16 |  |  |  |  |  | 52 | 
CS(=O)(=O)CCNCc1ccc(-c2ccc3ncnc(Nc4ccc(OCc5cccc(F)c5)c(Cl)c4)c3c2)o1 [lapatinib] | -4.72 |  | -5.46 | 2 | -4 | 10 |  |  | 3.4 |  |  |  |  | 0.699
CNC(=O)c1cc(Oc2ccc(NC(=O)Nc3ccc(Cl)c(C(F)(F)F)c3)c(F)c2)ccn1 [regorafenib] | -5.63 | 22 | 92 | -17 | -2.53 | 56 | -2.18 |  |  |  |  |  |  | 
Cc1nc(Nc2ncc(C(=O)Nc3c(C)cccc3Cl)s2)cc(N2CCN(CCO)CC2)n1 [dasatinib] |  |  |  |  | -7 |  |  |  |  |  |  |  |  | 
Cc1ccc(Nc2nccc(N(C)c3ccc4c(C)n(C)nc4c3)n2)cc1S(N)(=O)=O [pazopanib] | 17 | 58 |  | -1.05 | 10 | 86 | 52 |  |  |  |  |  |  | 
N#CC[C@H](C1CCCC1)n1cc(-c2ncnc3[nH]ccc23)cn1 [ruxolitinib] | 35 |  |  | -6.38 |  |  | 10 |  |  |  | 4 | 10 | 68 | 
CO[C@H]1C[C@@H]2CC[C@@H](C)[C@@](O)(O2)C(=O)C(=O)N2CCCC[C@H]2C(=O)O[C@H]([C@H](C)C[C@@H]2CC[C@@H](OCCO)[C@H](OC)C2)CC(=O)[C@H](C)/C=C(\C)[C@@H](O)[C@@H](OC)C(=O)[C@H](C)C[C@H](C)/C=C/C=C/C=C/1C [everolimus] | -3 | -6.41 | -2.3 | -9 | 11 | 1 | -4.36 |  |  |  |  |  |  | 
CC(=O)Nc1cccc(-n2c(=O)n(C3CC3)c(=O)c3c(Nc4ccc(I)cc4F)n(C)c(=O)c(C)c32)c1 [trametinib] | -4.66 | 1 | -4 | -6 | -2.32 | -9 | -4.66 |  |  |  |  |  |  | 
COc1cc(Nc2c(C#N)cnc3cc(OCCCN4CCN(C)CC4)c(OC)cc23)c(Cl)cc1Cl [bosutinib] | 100 |  | 93 | -11 |  | 92 | 72 |  | -4 |  |  |  |  | 
